Measured values: patent US20130345199A1, “1-[M-CARBOXAMIDO(HETERO)ARYL-METHYL]-PIPERIDINE-4-CARBOXAMIDE DERIVATIVES” (Actelion Pharmaceuticals Ltd., priority 2012, published 2013)

The compounds below were run against T1, CXCR7 (Homo sapiens, UniProt P25106) (assay: PathHunter CHO-K1 CXCR7 b-arrestin assay (agonistic activity)). Conditions: PathHunter CHO-K1 CXCR7 b-arrestin cell line, 90 minutes at 37° C.
T1 construct: host or cells: CHO-K1 (PathHunter CXCR7 b-arrestin cell line, stably transfected)
T1 sequence (P25106 whole entry): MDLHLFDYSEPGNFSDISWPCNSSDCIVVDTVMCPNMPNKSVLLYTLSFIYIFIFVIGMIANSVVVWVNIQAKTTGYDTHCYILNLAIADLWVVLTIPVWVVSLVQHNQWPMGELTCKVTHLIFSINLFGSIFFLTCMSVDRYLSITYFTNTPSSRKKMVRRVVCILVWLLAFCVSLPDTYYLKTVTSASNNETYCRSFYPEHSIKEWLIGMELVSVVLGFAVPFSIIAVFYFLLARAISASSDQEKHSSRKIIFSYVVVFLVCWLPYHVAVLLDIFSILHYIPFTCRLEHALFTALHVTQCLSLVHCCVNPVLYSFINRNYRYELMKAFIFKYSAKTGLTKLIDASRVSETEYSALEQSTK
Assay type: cell-based
Work on CC(C)(NC(=O)C1CCN(Cc2cccc(NC(=O)c3ccc(Cl)cc3)c2)CC1)c1ccccc1 [Example 2.017] yielded an EC50 of 219 nM.
With O=C(Nc1cccc(CN2CCC(C(=O)NC3CC4CCC3C4)CC2)c1)c1ccc(Cl)cc1 (racemic) [Example 2.008] the EC50 was 6 nM.
CC(C)(C)NC(=O)C1(F)CCN(Cc2cccc(NC(=O)c3cccc(C(F)(F)F)n3)c2)CC1 [Example 4.009, 6-Trifluoromethyl-pyridine-2-carboxylic acid [3-(4-tert-butylcarbamoyl-4-fluoro-piperidin-1-ylmethyl)-phenyl]-amide] was tested, and the EC50 was 20 nM.
Cc1cncc(C(=O)Nc2cccc(CN3CCC(C(=O)N4CCCCC4)CC3)c2)c1 [Example 2.046] showed an EC50 of 6 nM.
Compound Cc1cncc(C(=O)Nc2cccc(CN3CCC(C(=O)N4C(C)CCC4C)CC3)c2)c1 (stereo not drawn) [Example 2.051] has an EC50 of 96 nM.
Cc1cncc(C(=O)Nc2cccc(CN3CCC(C(=O)N4CCCC4)CC3)c2)c1 [Example 2.047] was tested, and the EC50 was 67 nM.
With O=C(Nc1cccc(CN2CCC(C(=O)NC3CCC3)CC2)c1)c1ccc(Cl)cc1 [Example 2.007] the EC50 was 1 nM.
For CC(C)C(CO)NC(=O)C1CCN(Cc2cccc(NC(=O)c3cccc(C(F)(F)F)n3)c2)CC1 (racemic) [Example 2.064], the EC50 was 87 nM.
For Cc1cncc(C(=O)Nc2csc(CN3CCC(C(=O)NC(C)(C)C)CC3)c2)c1 [Example 3.013, N-[5-(4-tert-Butylcarbamoyl-piperidin-1-ylmethyl)-thiophen-3-yl]-5-methyl-nicotinamide], the EC50 was 13 nM.
“1-[3-(3-Fluoro-benzoylamino)-benzyl]-piperidine-4-carboxylic acid cyclohexylamide [Example 1.103]” gave an EC50 of 6 nM.
Cc1cncc(C(=O)Nc2cccc(CN3CCC(C(=O)N4CC[C@@H](F)C4)CC3)c2)c1 [Example 2.052] was tested, and the EC50 was 121 nM.
In the case of CC(C)CNC(=O)C1CCN(Cc2cccc(NC(=O)c3cccc(C(F)(F)F)n3)c2)CC1 [Example 2.071], the EC50 is reported as 2 nM.
With CNC(=O)C1CCN(Cc2cccc(NC(=O)c3cccs3)c2)CC1 [Example 2.072] the EC50 was 188 nM.
Cc1cncc(C(=O)Nc2cccc(CN3CCC(C(=O)N4CCCC4(C)C)CC3)c2)c1 [Example 2.060] showed an EC50 of 10 nM.
CCN(CC)C(=O)C1CCN(Cc2cccc(NC(=O)c3ccc(Cl)cc3)c2)CC1 [Example 2.009] showed an EC50 of 1 nM.
